For data set [1], the target named is T1, TRPV2 (Mus musculus, UniProt Q9WTR1).
T1 sequence (Q9WTR1 1-756): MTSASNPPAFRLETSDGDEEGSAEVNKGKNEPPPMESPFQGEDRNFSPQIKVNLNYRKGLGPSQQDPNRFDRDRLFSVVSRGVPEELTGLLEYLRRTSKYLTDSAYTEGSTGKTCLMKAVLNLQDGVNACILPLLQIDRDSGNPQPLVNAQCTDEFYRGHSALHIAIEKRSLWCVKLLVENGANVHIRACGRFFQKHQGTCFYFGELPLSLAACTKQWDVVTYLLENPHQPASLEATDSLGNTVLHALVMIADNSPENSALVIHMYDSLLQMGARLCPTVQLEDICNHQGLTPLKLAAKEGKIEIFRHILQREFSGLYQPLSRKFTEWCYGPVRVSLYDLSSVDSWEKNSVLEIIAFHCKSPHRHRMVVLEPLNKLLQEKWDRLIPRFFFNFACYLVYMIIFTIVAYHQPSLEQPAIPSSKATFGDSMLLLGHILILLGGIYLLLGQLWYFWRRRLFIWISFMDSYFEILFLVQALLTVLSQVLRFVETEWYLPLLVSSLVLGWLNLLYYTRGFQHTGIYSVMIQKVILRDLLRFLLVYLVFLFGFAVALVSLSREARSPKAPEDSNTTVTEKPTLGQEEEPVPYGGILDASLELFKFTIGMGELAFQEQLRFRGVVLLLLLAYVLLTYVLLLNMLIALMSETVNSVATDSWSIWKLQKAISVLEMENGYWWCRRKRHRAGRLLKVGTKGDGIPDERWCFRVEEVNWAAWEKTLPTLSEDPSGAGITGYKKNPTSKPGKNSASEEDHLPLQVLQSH
Briefly: Ca++ imaging in N2a cells over-expressing TRPV2 (hypotonicity). The note with it: 5 μM.
Description: (A) Specificity vs TRPV1-3. […] Mean±SEM is shown, ≥100 cells per condition. […] Plot generated from averaged peak ∆Ca^++ concentration of ≥75 cells per data-point.
N2a cells were used for directed expression of TRP ion channels as described previously[13]. […] All other channels were native channels from mouse, eGFP was co-transfected. […] Ca^++ imaging was performed as described previously[13][14][34].

Data set [2] deals with T2, TRPV4 (Rattus norvegicus, UniProt Q9ERZ8). Briefly: Ca++ imaging in primary astrocytes, GSK101 stimulation. In kind it is cell-based. Conditions: GSK101 5 nM. The method, then:
(§1) Figure 4 Compound 16-8 inhibits TRPV4 in I˚ cells more potently than GSK205. […] Inset: Chondrocytes responding to activation with GSK101, fura-2 Ca^++ imaging; right-hand image taken at 5 sec after GSK101 application. […] (B) I˚ astrocytes (rat); dose-response comparison between 16-8 and GSK205 in response to 5 nM GSK101. Inset: Astrocytes responding to activation with GSK101; right-hand image taken at 5 sec after GSK101 application (mean ± SEM, n = 5 independent expts, n ≥ 200 cells/expt; *p < 0.05, t-test).
Astrocyte cultures were conducted following established protocols. Astrocytes were prepared from Sprague Dawley rat embryos (E18). Briefly, the isolated cortices were minced, and then incubated with trypsin and DNase. Dissociated cells were suspended in Dulbeccco’s Modified Eagle’s Medium (DMEM) supplemented with 10% fetal calf serum and penicillin/streptomycin (100 U/ml and 100 μg/ml, respectively). Thereafter, cell suspensions were plated in 75 cm^2 tissue culture flasks (10 × 10^6 cells/flask) which were pre-coated with poly-L-lysine (10 μg/ml). The cells were maintained in a 10%CO2 incubator at 37 °C.

In data set [3] the target is T2, TRPV4. Briefly: Patch-clamp recording of TRPV4-mediated currents in TRPV4-GFP+ N2a cells. In kind it is cell-based. Conditions: 5 μM, 5 min pre-incubation, GSK101 5 nM, current densities at −100mV/+100 mV. Also noted: expressed in transfected cells; host or cells: N2a (mouse neuroblastoma) cells. On the procedure:
Figure 3 TRPV4 channel inhibition by compounds 16-8 and 16-19 – patch-clamp e-phys. (A) Current-voltage relationship of TRPV4-mediated currents after activation with 5 nM GSK101. Recordings were performed in TRPV4-GFP+ N2a cells. The representative traces represent an average of ≈12 sweeps. In all experiments, cells were pre-incubated with the respective compound (5 μM) for 5 minutes.
Heterologously transfected N2a cells were subjected to patch clamp electrophysiological recordings. Briefly, 24 h after transfection cells were prewashed with extracellular fluid (ECF) which contained (in mM) 1 MgCl2, 10 Glucose, 10 HEPES, 145 NaCl and 2 CaCl2 (pH 7.4, 310mOsM). Cells were then incubated with or without TRPV4 inhibitors in ECF for 5 min before whole cell recording. Cover slips were transferred to a recording chamber mounted on the stage of a Leica inverted microscope that was equipped with fluorescent filters. Transfected cells were identified before patching by their green florescent color. Cells were patched with a 2.5–3.0 MΩ glass electrode pulled from borosilicate glass capillaries using pipette puller (Sutter instruments). […] Whole cell currents were recorded using pclamp 9.2 software and Axopatch 200B amplifier (Molecular Devices). […] Capacitance was monitored throughout the experimental recordings. […]
Background: The patch-clamp technique gives a direct electrical read-out from membranes.

For data set [4], the system named is caerulein-evoked acute pancreatitis. Briefly: Caerulein-induced acute pancreatitis mouse model. In kind it is in vivo. The note with it: 10 mg/kg i.p., 30 min before caerulein. The method, then:
C57BL/6J male mice 8–10 weeks of age were subjected to acute pancreatitis by intraperitoneal injections of supramaximal doses of caerulein (50 μg/kg) every hour for a total of 6 h, as previously described in[61]. Control animals received 25% DMSO-saline solution by intraperitoneal injection every hour for 6 h. Compound 16-8 was dissolved in this vehicle (10 mg/kg) and injected i.p. 30 min prior to the first injection of caerulein. Animals were sacrificed 1 h after the last injection. Blood was collected and pancreatic tissue was promptly isolated, weighed for determination of pancreas wet weight/body weight ratio. Samples of tissues were fixed overnight in 10% neutral-buffered formalin, paraffin embedded and H&E-stained, or pancreatic tissue was quickly frozen and assessed for myeloperoxidase (MPO) activity. Serum amylase, MPO and histologic evaluation were conducted as described previously. Assessment of nocifensive behavior[8]: Mice were housed in individual cages and video-recorded during the entire experiment. Two mice at a time were observed. Linear movement was measured as one event when mice passed through the median plane of the cage. Analysis began immediately after the first caerulein/vehicle injection and continued until the end of the experiment. Results were expressed as the sum of the movement events spanning the 6 h time-period following the first injection.

Data set [5] deals with T3, TRPV4 (Sus scrofa, UniProt B3VP30).
T3 construct: primary cells, which express functional and biologically-relevant TRPV4 without directed over-expression of the channel; endogenous in cells; host or cells: primary porcine articular chondrocytes (femoral condyles)
T3 sequence (B3VP30 1-871): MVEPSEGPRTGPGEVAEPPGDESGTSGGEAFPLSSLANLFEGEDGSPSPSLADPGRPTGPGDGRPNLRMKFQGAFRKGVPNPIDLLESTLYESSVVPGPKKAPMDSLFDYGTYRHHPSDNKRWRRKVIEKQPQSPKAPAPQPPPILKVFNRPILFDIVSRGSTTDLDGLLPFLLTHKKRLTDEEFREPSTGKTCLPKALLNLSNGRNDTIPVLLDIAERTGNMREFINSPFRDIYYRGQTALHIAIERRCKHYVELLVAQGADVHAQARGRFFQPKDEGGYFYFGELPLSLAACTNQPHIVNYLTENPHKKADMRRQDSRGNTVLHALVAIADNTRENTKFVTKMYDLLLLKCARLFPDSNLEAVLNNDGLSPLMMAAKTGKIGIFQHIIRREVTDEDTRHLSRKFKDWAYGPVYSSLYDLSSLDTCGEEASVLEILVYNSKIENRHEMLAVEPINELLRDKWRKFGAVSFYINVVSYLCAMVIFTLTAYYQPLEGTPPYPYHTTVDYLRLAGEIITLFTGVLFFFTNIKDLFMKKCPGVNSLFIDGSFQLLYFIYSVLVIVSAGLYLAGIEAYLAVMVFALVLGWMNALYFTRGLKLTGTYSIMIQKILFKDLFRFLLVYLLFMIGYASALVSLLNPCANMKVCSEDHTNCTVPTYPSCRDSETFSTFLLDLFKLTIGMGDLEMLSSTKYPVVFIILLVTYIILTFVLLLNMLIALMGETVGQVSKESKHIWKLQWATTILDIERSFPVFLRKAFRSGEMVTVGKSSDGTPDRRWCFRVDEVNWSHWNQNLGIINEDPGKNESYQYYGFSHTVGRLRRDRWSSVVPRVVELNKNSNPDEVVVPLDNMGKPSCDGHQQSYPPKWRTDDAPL
Briefly: Ca++ imaging in primary articular chondrocytes, GSK101 stimulation. The note with it: GSK101 5 nM. In kind it is cell-based, pig. The method, then: as §1
Primary porcine chondrocytes derived from femoral condyles of skeletally mature pigs were cultured and subjected to Ca^++ imaging as described previously.

Data set [6] is described as follows: Stability of compound in plasma. In kind it is in vitro ADME. Conditions: 4 h incubation in plasma at 37 °C.

“Also recorded” adds a separate entry of the source.

T2 sequence (Q9ERZ8 whole entry): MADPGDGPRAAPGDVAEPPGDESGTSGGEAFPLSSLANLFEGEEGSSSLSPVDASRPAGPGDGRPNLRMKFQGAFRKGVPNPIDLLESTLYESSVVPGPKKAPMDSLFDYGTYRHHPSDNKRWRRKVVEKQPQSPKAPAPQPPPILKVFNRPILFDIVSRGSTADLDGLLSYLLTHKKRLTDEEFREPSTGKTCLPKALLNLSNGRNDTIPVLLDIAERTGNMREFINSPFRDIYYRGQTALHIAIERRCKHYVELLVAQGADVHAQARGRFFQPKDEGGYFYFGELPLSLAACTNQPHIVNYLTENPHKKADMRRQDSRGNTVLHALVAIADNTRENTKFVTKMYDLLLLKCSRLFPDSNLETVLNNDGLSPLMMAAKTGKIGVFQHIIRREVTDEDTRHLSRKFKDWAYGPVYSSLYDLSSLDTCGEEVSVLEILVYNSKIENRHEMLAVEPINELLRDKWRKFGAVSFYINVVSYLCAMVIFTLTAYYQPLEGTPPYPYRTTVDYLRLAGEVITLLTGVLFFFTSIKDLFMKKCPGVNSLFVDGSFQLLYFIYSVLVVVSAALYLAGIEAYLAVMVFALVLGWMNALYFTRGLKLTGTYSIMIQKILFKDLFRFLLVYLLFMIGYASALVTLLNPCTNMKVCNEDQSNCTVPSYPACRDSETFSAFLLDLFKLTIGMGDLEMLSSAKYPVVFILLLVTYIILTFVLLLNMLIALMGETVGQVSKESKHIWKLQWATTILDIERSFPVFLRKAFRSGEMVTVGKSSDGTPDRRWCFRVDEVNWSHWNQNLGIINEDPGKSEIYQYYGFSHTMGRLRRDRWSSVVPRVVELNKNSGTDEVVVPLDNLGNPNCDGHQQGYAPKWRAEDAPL

Regarding `CN(CCc1ccc(Nc2nc(-c3ccccc3)cs2)cc1)Cc1ccccc1` [16-8], in data set [1], the “inhibition of TRPV2” value was “did not inhibit”. Also, the “potency vs GSK205, dose-response of peak ∆Ca++” value in data set [2] is reported as “significantly increased potency”. Also, the “attenuation of TRPV4-mediated currents” value in data set [3] is recorded as “significantly increased potency”. In data set [4], the “histopathological score for pancreas inflammation” value is recorded as “significantly reduced; also recorded: significant reduction”; the “myelo-peroxidase (MPO)” value was “significantly reduced”; the “pain behavior (nocifensive behavior, 6 h test period)” value was “virtually eliminated; also recorded: significantly reduced”; the pancreatic edema result is recorded as “virtually eliminated”. In addition, the “potency vs GSK205, dose-response of peak ∆Ca++” value in data set [5] is listed as “significantly more potent than GSK205”.
Turning to `CCN(CCc1ccc(Nc2nc(-c3ccccc3)cs2)cc1)Cc1ccccc1` [16-19], in data set [1], the “inhibition of TRPV2” value was “did not inhibit”. For the same compound, the “attenuation of TRPV4-mediated currents” value in data set [3] is “significantly increased potency”. In data set [6], the stability in plasma result is “stable; also recorded: no loss of detectable compound”.
